Source: patent US4372953A, “Tetrazole derivatives, and anti-ulcer composition containing the same” (Otsuka Pharmaceutical Company, Limited, priority 1980, dated 1983)
Where two headings read alike, the source gives them in different places.

Key:
[1] = tested on: gastric juice secretion; assay: Shay rat pylorus ligation method (gastric juice secretion-inhibiting activity); type: in vivo, male Wistar rats; conditions: 100 mg/kg, 4 hours after ligation; for inhibition in vivo at 100 mg/kg: Rattus norvegicus, 4 h
Procedure: The pharmacological activities of the compounds (1) were tested by a Shay rat pylorus ligation method (cf. H. Shay et al: Gastroenterol., Vol. 5, page 43, 1945) which is the most popular method for testing of gastric juice secretion-inhibiting activity. The test was carried out by using male Wistar rats, weighing about 170 g and fasting for 24 hours.
Test compounds were administered 30 minutes before the pylorus ligation in a dose of 100 mg/kg in subcutaneous route in case of test compounds 37, 38, 50, 51 and 52, in a dose of 200 mg/kg in subcutaneous route in case of test compounds 105 and 106 and in dose of 100 mg/kg in duodenal route in case of other test compounds, and the volume, total acidity and pepsin activity of the gastric juice were measured 4 hours after the ligation. As a control, a saline solution was administered instead of the test compound. The inhibitory ratio (%) of the test compounds were calculated when the inhibitory activities of the control were counted as zero (0).
(§1) In the table, the inhibitory ratio (%) was evaluated as follows: […]

[2] = tested on: stress ulcer; assay: Stress ulcer (restraint and water immersion); type: in vivo, male Wistar rats; conditions: Rattus norvegicus, po, 7 h, read-out: Inhibitory ratio of stress ulcer; for inhibition in vivo at 300 mg/kg: 0.5% CMC suspension; for inhibition in vivo: concentration of 1×10^-3 mole
Procedure: After male Wistar rats weighing about 170 g was fasted for 24 hours, the rats were restrained in a stress cage and dipped in water bath at 23° C. till chest of the animals. After 7 hours, the rats were killed and the stomach was isolated. Into the isolated stomach 10% formalin (8 ml) was poured and settled. The stomach was cut open at the greater curvature, and the length of each ulcer on the membrane was measured. Sum of the length of all ulcers was shown as ulcer index (UI). The test compound was orally administered to the rats before restraint in a stress cage in a dose of 300 mg/kg in the form of 0.5% CMC suspension in case of test compounds 3, 4, 6, 15 and 27 and in a concentration of 1×10^-3 mole in case of other test compounds. As a control, only the solvent (CMC solution) was administered likewise. The inhibitory ratio (%) of stress ulcer of the test compounds was calculated by the following equation: [formula]
as §1

[3] = duodenal route, read-out: Inhibitory ratio, volume of gastric juice
[4] = sc, subcutaneous route, read-out: Inhibitory ratio, pepsin activity
[5] = sc, subcutaneous route, read-out: Inhibitory ratio, total acidity
[6] = sc, subcutaneous route, read-out: Inhibitory ratio, volume of gastric juice

Row | SMILES | inhibition in vivo at 100 mg/kg [1, 3] [%] | inhibition in vivo [2] [%] | other results
1 | Cn1nnnc1SCCCSc1ccccc1 [Test compound 10, 1-Methyl-5-(3-phenylthiopropyl)thio-1,2,3,4-tetrazole] | 10 to 50 | – | –
2 | Cn1ccnc1SCCCSc1nnnn1C [Test compound 11, 1-Methyl-5-[3-(1-methylimidazol-2-yl)thiopropyl]thio-1,2,3,4-tetrazole] | > 50 | – | –
3 | Cc1ccnc(SCCCSc2nnnn2C)n1 [Test compound 13, 1-Methyl-5-[3-(4-methyl-2-pyrimidyl)thiopropyl]thio-1,2,3,4-tetrazole] | > 50 | – | –
4 | Cc1nnc(SCCCSc2nnnn2C)n1C [Test compound 15, 1-Methyl-5-[3-(4,5-dimethyl-1,2,4-triazol-3-yl)thiopropyl]thio-1,2,3,4-tetrazole] | – | – | inhibition in vivo at 300 mg/kg [2]: > 60%
5 | Cn1nnnc1SCCCSCc1csc(N)n1 [Test compound 17, 1-Methyl-5-[3-(2-amino-4-thiazolyl)methylthiopropyl]thio-1,2,3,4-tetrazole] | 10 to 50 | > 60 | –
6 | Cn1nnnc1SCCCSc1ccc2ccccc2n1 [Test compound 18, 1-Methyl-5-[3-(2-quinolyl)thiopropyl]thio-1,2,3,4-tetrazole] | 10 to 50 | – | –
7 | Cn1nnnc1SCCCSc1nc2ccccc2[nH]1 [Test compound 19, 1-Methyl-5-[3-(2-benzimidazolyl)thiopropyl]thio-1,2,3,4-tetrazole] | 10 to 50 | – | –
8 | Cn1nnnc1SCCCSCc1ccco1 [Test compound 21, 1-Methyl-5-[3-(2-furyl)methylthiopropyl]thio-1,2,3,4-tetrazole] | > 50 | – | –
9 | Cn1nnnc1SCCCSCc1ccccc1 [Test compound 22, 1-Methyl-5-(3-benzylthiopropyl)thio-1,2,3,4-tetrazole] | > 50 | – | –
10 | Cn1nnnc1SCCCSCc1ccccn1 [Test compound 23, 1-Methyl-5-[3-(2-pyridyl)methylthiopropyl]thio-1,2,3,4-tetrazole] | 10 to 50 | – | –
11 | Cn1nnnc1SCCCSc1ccncc1 [Test compound 25, 1-Methyl-5-[3-(4-pyridyl)thiopropyl]thio-1,2,3,4-tetrazole] | – | > 60 | –
12 | Br.CNC(=N)SCCCCSc1nnnn1C [Test compound 27, 1-Methyl-2-[4-(1-methyl-1,2,3,4-tetrazol-5-yl)thiobutyl]isothiourea hydrobromide] | – | – | Inhibitory ratio, volume of gastric juice ([1]; duodenal route): + +; inhibition in vivo at 300 mg/kg [2]: > 60%
13 | Cn1nnnc1SCCCCSc1ccccc1 [Test compound 28, 1-Methyl-5-(4-phenylthiobutyl)thio-1,2,3,4-tetrazole] | 10 to 50 | – | –
14 | Cn1nnnc1SCCCCSc1nc2ccccc2c(=O)[nH]1 [Test compound 29, 1-Methyl-5-[4-(4-oxo-3,4-dihydroquinazolin-2-yl)thiobutyl]thio-1,2,3,4-tetrazole] | 10 to 50 | – | –
15 | Cn1nnnc1SCCSc1ccccn1 [Test compound 31, 1-Methyl-5-[2-(2-pyridyl)thioethyl]thio-1,2,3,4-tetrazole] | > 50 | > 60 | –
16 | Cn1nnnc1SCCCCCSc1ccccn1 [Test compound 32, 1-Methyl-5-[5-(2-pyridyl)thiopentyl]thio-1,2,3,4-tetrazole] | 10 to 50 | – | –
17 | Cn1nnnc1SCCCCCCSc1ccccn1 [Test compound 33, 1-Methyl-5-[6-(2-pyridyl)thiohexyl]thio-1,2,3,4-tetrazole] | 10 to 50 | > 60 | –
18 | CC(CSc1ccccn1)CSc1nnnn1C (stereo not drawn) [Test compound 34, 1-Methyl-5-[2-methyl-3-(2-pyridyl)thiopropyl]thio-1,2,3,4-tetrazole] | > 50 | > 60 | –
19 | Cn1nnnc1SCCSc1nnnn1C [Test compound 35, 1-Methyl-5-[2-(1-methyl-1,2,3,4-tetrazol-5-yl)thioethyl]thio-1,2,3,4-tetrazole] | – | – | Inhibitory ratio, volume of gastric juice ([1]; duodenal route): + +

Row | SMILES | inhibition in vivo at 100 mg/kg [1, 3] [%] | inhibition in vivo [2] [%] | other results
20 | Cn1nnnc1SCCCSc1nnnn1C [Test compound 37, 1-Methyl-5-[3-(1-methyl-1,2,3,4-tetrazol-5-yl)thiopropyl]thio-1,2,3,4-tetrazole] | – | – | inhibition in vivo at 100 mg/kg [1, 4]: > 50%; inhibition in vivo at 100 mg/kg [1, 5]: > 50%; inhibition in vivo at 100 mg/kg [1, 6]: > 50%
21 | c1ccc(-n2nnnc2SCCCSc2nnnn2-c2ccccc2)cc1 [Test compound 38, 1-Phenyl-5-[3-(1-phenyl-1,2,3,4-tetrazol-5-yl)thiopropyl]thio-1,2,3,4-tetrazole] | – | – | inhibition in vivo at 100 mg/kg [1, 4]: 10 to 50%; inhibition in vivo at 100 mg/kg [1, 5]: 10 to 50%; inhibition in vivo at 100 mg/kg [1, 6]: 10 to 50%
22 | Cn1nnnc1SCCCSc1ccc([N+](=O)[O-])cn1 [Test compound 40, 1-Methyl-5-[3-(5-nitro-2-pyridyl)thiopropyl]thio-1,2,3,4-tetrazole] | – | > 60 | –
23 | Cc1nnc(SC(C)CCSc2nnnn2C)o1 (stereo not drawn) [Test compound 42, 1-Methyl-5-[3-methyl-3-(5-methyl-1,3,4-oxadiazol-2-yl)thiopropyl]thio-1,2,3,4-tetrazole] | – | > 60 | –
24 | Cn1nnnc1[S+]([O-])CCCCSc1ccccn1 (stereo not drawn) [Test compound 45, 1-Methyl-1,2,3,4-tetrazol-5-yl 4-(2-pyridyl)thiobutyl sulfoxide] | – | > 60 | –
25 | Cn1nnnc1SCCCCS(=O)(=O)c1nnnn1C [Test compound 47, 4-(1-Methyl-1,2,3,4-tetrazol-5-yl)thiobutyl 1-methyl-1,2,3,4-tetrazol-5-yl sulfone] | > 50 | – | –
26 | Cn1nnnc1SCCCS(=O)(=O)c1ccccn1 [Test compound 48, 3-(1-Methyl-1,2,3,4-tetrazol-5-yl)thiopropyl 2-pyridyl sulfone] | 10 to 50 | – | –
27 | CC(CC[S+]([O-])c1nnnn1C)Sc1nnnn1C (stereo not drawn) [Test compound 49, 1-Methyl-1,2,3,4-tetrazol-5-yl 3-methyl-3-(1-methyl-1,2,3,4-tetrazol-5-yl)thiopropyl sulfoxide] | – | > 60 | –
28 | CCC(=O)CCCSc1nnnn1C [Test compound 50, 1-Methyl-5-(3-propionylpropyl)thio-1,2,3,4-tetrazole] | – | – | inhibition in vivo at 100 mg/kg [1, 4]: > 50%; inhibition in vivo at 100 mg/kg [1, 5]: > 50%; inhibition in vivo at 100 mg/kg [1, 6]: > 50%
29 | COc1ccc(C(=O)CCCSc2nnnn2C)cc1 [Test compound 63, 1-Methyl-5-[3-(4-methoxybenzoyl)propyl]thio-1,2,3,4-tetrazole] | 10 to 50 | – | –
30 | Cn1nnnc1SCCCCC(=O)c1ccccc1 [Test compound 71, 1-Methyl-5-(4-benzoylbutyl)thio-1,2,3,4-tetrazole] | 10 to 50 | – | –
31 | CCCCOc1ccc(C(=O)CCCSc2nnnn2C)cc1 [Test compound 79, 1-Methyl-5-[3-(4-butoxybenzoyl)propyl]thio-1,2,3,4-tetrazole] | – | > 60 | –
32 | Cn1nnnc1SCCCNC(=O)C1CCCCC1 [Test compound 81, 1-Methyl-5-(3-cyclohexylcarbonylaminopropyl)thio-1,2,3,4-tetrazole] | 10 to 50 | – | inhibition in vivo at 100 mg/kg ([1]; duodenal route, read-out: Inhibitory ratio, pepsin activity): 10 to 50%; inhibition in vivo at 100 mg/kg ([1]; duodenal route, read-out: Inhibitory ratio, total acidity): 10 to 50%
33 | CC(=O)N(C)CCCSc1nnnn1C [Test compound 83, 1-Methyl-5-[3-(N-methyl-N-acetylamino)propyl]thio-1,2,3,4-tetrazole] | – | > 60 | –
34 | CCN(CCCSc1nnnn1C)C(=O)C1CCCC1 [Test compound 92, 1-Methyl-5-[3-(N-ethyl-N-cyclopentylcarbonylamino)propyl]thio-1,2,3,4-tetrazole] | 10 to 50 | – | –
35 | Cn1nnnc1SCc1ccccn1 [Test compound 98, 1-Methyl-5-(2-pyridylmethyl)thio-1,2,3,4-tetrazole] | > 50 | – | –
36 | Cc1nnnn1CCCC(=O)N1CCN(C)CC1 [Test compound 112, 5-Methyl-1-[3-(4-methyl-1-piperazinylcarbonyl)propyl]-1,2,3,4-tetrazole] | – | > 60 | –
37 | COc1ccc(CCNC(=O)CCCn2nnnc2C)cc1OC [Test compound 114, N-[2-(3,4-Dimethoxyphenyl)ethyl]-4-(5-methyl-1,2,3,4-tetrazol-1-yl)butyramide] | – | 30 to 60 | –
38 | Cc1nnnn1CCCC(=O)N1CCOCC1 [Test compound 117, 5-Methyl-1-(3-morpholinocarbonylpropyl)-1,2,3,4-tetrazole] | – | 30 to 60 | –
